The source of these data is patent US20130287688A1, “NOVEL COMPOSITIONS AND USES OF ANTI-HYPERTENSION AGENTS FOR CANCER THERAPY” (XTUIT PHARMACEUTICALS, INC., priority 2010, published 2013).

For one experiment, the system named is E0771 tumors. Description: Tissue oxygenation by phosphorescence quenching microscopy. The class given is in vivo, mice. As to conditions: versus control tumors that become more hypoxic with time.
Another experiment deals with HSTS26T tumors. Description: Second harmonic generation (SHG) imaging of fibrillar collagen in dorsal skin fold chamber tumors. It is filed as in vivo, SCID mice. To be noted: for decrease in SHG levels (collagen): end of 15 days. As to the method: Cozaar (losartan potassium) tablets were ground using a mortar and pestle. The powder was then dissolved in water to obtain a concentration of 2.5 mg/ml. The solution was then filtered and stored in a sterile container.
Second Harmonic Imaging (SHG) imaging was performed in dorsal chamber tumors with a custom-built multiphoton laser-scanning microscope (Brown E, et al. (2003) Nat Med 9:796-800). Polarized light from a Ti:Sapphire laser (Mai-Tai Broadband: Spectra-Physics, Mountain View, Calif.) was converted to circularly polarized light using a zero order quarter wave plate (Newport Corporation, Irvine, Calif.). An excitation wavelength of 810 nm and detected SHG signals at 405 nm was used. SCID mice bearing HSTS26T tumors in dorsal chambers were either treated with losartan (10, 20 or 60 mg/kg/day) or saline for the duration of the dose response experiment (15 days). Vascular markers were used to locate 4 regions of interest in each mouse and periodically returned to the same region of SHG imaging. SHG images were analyzed with a custom-built Matlab (The MathWorks, Inc., Natick, Mass.) code. The fraction of the region of interest (ROI) that was positive for the SHG signal was normalized to the amount of SHG signal obtained on day 1 of the dose response study (before initiation of losartan or saline treatment).

Each structure is given as a SMILES string.

Protocol for E0771 tumors: Oxygenation was then studied using phosphorescence quenching microscopy.
An oxygen-sensitive porphyrin, Oxyphor R2 (Oxygen Enterprises) was injected retro-orbitally 12 hrs prior to imaging, and was reinjected immediately prior to imaging along with 2MDa FITC-dextran (Sigma-Aldrich) for functional vascular tracing. A mosaic image of the tumor was collected, and oxygen was then measured in an evenly spaced 12×12 grid at four depths (60, 120, 180, and 240 μm) in the tumor. At each point in the grid, the phosphorescence lifetime of the probe was measured after each of several repeated brief intense pulses of 1020 nm laser light, and these lifetime measurements were combined. A two-component model was used to calculate the oxygen tension from each lifetime measurement, accounting for binding and quenching of the probe by both oxygen and proteins. The grid was then overlayed on the mosaic images to make an oxygen map.

As to `CCCCc1nc(Cl)c(CO)n1Cc1ccc(-c2ccccc2-c2nn[nH]n2)cc1` [losartan], in the experiment on E0771 tumors, the tissue oxygenation entry is recorded as “maintains the level of oxygenation”. The figures for the “intratumoral SHG signal intensity” value with HSTS26T tumors (10 mg/kg/day i.p.), in the experiment with HSTS26T tumors (20 mg/kg/day i.p.) and in the experiment with HSTS26T tumors (60 mg/kg/day i.p.) were “did not have a significant effect”, “significantly reduced” and “significantly reduced”, respectively. Further, the “decrease in SHG levels (collagen)” value in the experiment with HSTS26T tumors (10 mg/kg/day i.p.) is 20%; in the experiment on HSTS26T tumors (20 mg/kg/day i.p.), 33%; with HSTS26T tumors (60 mg/kg/day i.p.), 67%.
